IC50 data for two compounds are collected here from BindingDB's records for doi:10.1016/j.bmcl.2018.09.032 (Shionogi, 2018).

The structures appear in SMILES notation.

What is called IC50 is the concentration needed to halve the response being measured.

This experiment is described as follows: Transrepression of RORgammat in anti-CD3/CD28 stimulated human PBMC derived CD4-positive T cells assessed as suppression of T cell differentiation to Th17 cells by measuring reduction in IL-17A level after 7 days by flow cytometry analysis. For orientation: A flow cytometer gives signals particle by particle.

For the compound `CCS(=O)(=O)c1ccc(CC(=O)Nc2ccc(C(C)(C)C(=O)Nc3ccc(F)cc3F)c(F)c2)cc1`, the IC50 turned out to be 13 nM.

Regarding `CCS(=O)(=O)c1ccc(CC(=O)Nc2ccc(C(C)(C)C(=O)Nc3ccc(F)cc3F)cc2)cc1`, the IC50 was 36 nM.
